Results on 11 compounds are retold here after patent publication US20220273683A1, “BORON-CONTAINING SMALL MOLECULES” (Bill & Melinda Gates Foundation, priority 2016, published 2022).

Experiment [1] concerns Staphylococcus aureus, MRSA (ATCC 33591). Put plainly: Antibacterial MIC assay (microbroth dilution, CLSI). Format: cell-based. Conditions: 35° C., 16-20 hours. The source says:
(§1) All MIC testing of bacteria followed the Clinical and Laboratory Standards Institute (CLSI) guidelines for antimicrobial testing of aerobic bacteria (Methods for Dilution Antimicrobial Susceptibility Tests for Bacteria that Grow Aerobically; Approved Standard—Tenth Edition, M07-A10; Performance Standards for Antimicrobial Susceptibility Testing; Twenty-fifth Informational Supplement, M100-S25).
(§2) Briefly, the microbroth dilution MIC method was used to quantitatively measure the in vitro antibacterial activity of a compound against a given bacterial isolate. The following bacterial strains were evaluated: Staphylococcus aureus, MRSA (ATCC 33591) and Streptococcus pneumoniae (ATCC 49619). Bacteria were grown in cation-adjusted Mueller-Hinton broth, with additions as required per species growth requirements (e.g. 3% lysed horse blood for fastidious organisms such as S. pneumoniae). A direct colony suspension in saline was prepared from colonies on an overnight agar plate to achieve a turbidity equivalent to 0.5 McFarland standard, which was subsequently diluted into the assay plate to achieve 5×10^5 CFU/mL. Assays plates were prepared by 2-fold dilution of compound across the plate and included a positive growth control.
In general terms: Broth dilution looks for growth in wells or tubes with falling amounts of substance.

For experiment [2], the system named is Streptococcus pneumoniae (ATCC 49619). The description is as above. Format: cell-based. Particulars: 3% lysed horse blood, 35° C., 16-20 hours.
From the text: as §1, §2

Regarding `C[C@@H]1CC[C@@]23CCC(=O)[C@H]2[C@]1(C)[C@H](OC(=O)COc1ccc2c(c1F)B(O)OC2)C[C@@](C)(CN(C)C)[C@@H](O)[C@@H]3C` [Compound 33, (3aR,4R,5R,7S,8S,9R,9aS,12R)-7-((dimethylamino)methyl)-8-hydroxy-4,7,9,12-tetramethyl-3-oxodecahydro-4,9a-propanocyclopenta[8]annulen-5-yl2-((7-fluoro-1-hydroxy-1,3-dihydrobenzo[c][1,2]oxaborol-6-yl)oxy)acetate], the “MIC Staphylococcus aureus, MRSA (ATCC 33591)” value (shortened to “MIC Staphylococcus aureus”) in experiment [1] is on record as “B (0.5-2 is B)”. In addition, the “MIC Streptococcus pneumoniae (ATCC 49619)” value (“MIC Streptococcus pneumoniae” for short) in experiment [2] is reported as “C (4-32 is C)”.
As for `Cc1nnc(/C=C/[C@]2(C)C[C@@H](OC(=O)COc3ccc4c(c3F)B(O)OC4)[C@]3(C)[C@H](C)CC[C@]4(CCC(=O)[C@H]43)[C@@H](C)[C@@H]2O)o1` [Compound 51, (3aR,4R,5R,7S,8S,9R,9aS,12R)-8-hydroxy-4,7,9,12-tetramethyl-7-((E)-2-(5-methyl-1,3,4-oxadiazol-2-yl)vinyl)-3-oxodecahydro-4,9a-propanocyclopenta[8]annulen-5-yl2-((7-fluoro-1-hydroxy-1,3-dihydrobenzo[c][1,2]oxaborol-6-yl)oxy)acetate], the “MIC Staphylococcus aureus” value in experiment [1] is on record as “B (0.5-2 is B)”. For the same compound, the “MIC Streptococcus pneumoniae” value in experiment [2] is listed as “B (0.5-2 is B)”.
On to `C[C@@H]1CC[C@@]23CCC(=O)[C@H]2[C@]1(C)[C@H](OC(=O)COc1ccc2c(c1F)B(O)OC2)C[C@@](C)(C=NO)[C@@H](O)[C@@H]3C` [Compound 43, (3aR,4R,5R,7S,8S,9R,9aS,12R)-8-hydroxy-7-((hydroxyimino)methyl)-4,7,9,12-tetramethyl-3-oxodecahydro-4,9a-propanocyclopenta[8]annulen-5-yl2-((7-fluoro-1-hydroxy-1,3-dihydrobenzo[c][1,2]oxaborol-6-yl)oxy)acetate], for which the “MIC Staphylococcus aureus” value in experiment [1] is recorded as “A (MIC of ≤0.25 is A)”. Moreover, the “MIC Streptococcus pneumoniae” value in experiment [2] is “C (4-32 is C)”.
Regarding `C[C@@H]1CC[C@@]23CCC(=O)[C@H]2[C@]1(C)[C@H](OC(=O)COc1ccc2c(c1F)B(O)OC2)C[C@@](C)(CN1CCC1)[C@@H](O)[C@@H]3C` [Compound 38, (3aR,4R,5R,7S,8S,9R,9aS,12R)-7-(azetidin-1-ylmethyl)-8-hydroxy-4,7,9,12-tetramethyl-3-oxodecahydro-4,9a-propanocyclopenta[8]annulen-5-yl2-((7-fluoro-1-hydroxy-1,3-dihydrobenzo[c][1,2]oxaborol-6-yl)oxy)acetate], the “MIC Staphylococcus aureus” value in experiment [1] is listed as “B (0.5-2 is B)”. The “MIC Streptococcus pneumoniae” value in experiment [2] is given as “C (4-32 is C)”.
Taken in the same sequence, the figures for `C[C@@H]1CC[C@@]23CCC(=O)[C@H]2[C@]1(C)[C@H](OC(=O)COc1ccc2c(c1F)B(O)OC2)C[C@@]1(C)CC(O)O[C@H]1[C@@H]3C` (stereo partly drawn) [Compound 9, (3aS,5R,6R,6aR,9aS,10R,10aS,13R)-2-hydroxy-3a,6,10,13-tetramethyl-7-oxododecahydro-6,9a-propanocyclopenta[6,7]cycloocta[1,2-b]furan-5-yl2-((7-fluoro-1-hydroxy-1,3-dihydrobenzo[c][1,2]oxaborol-6-yl)oxy)acetate] were “C (4-32 is C)” and “C (4-32 is C)”.
Take `C[C@@H]1CC[C@@]23CCC(=O)[C@H]2[C@]1(C)[C@H](OC(=O)COc1ccc2c(c1F)B(O)OC2)C[C@@](C)(CCN1CCCCC1)[C@@H](O)[C@@H]3C` [Compound 40, (3aR,4R,5R,7R,8S,9R,9aS,12R)-8-hydroxy-4,7,9,12-tetramethyl-3-oxo-7-(2-(piperidin-1-yl)ethyl)decahydro-4,9a-propanocyclopenta[8]annulen-5-yl2-((7-fluoro-1-hydroxy-1,3-dihydrobenzo[c][1,2]oxaborol-6-yl)oxy)acetate]: the “MIC Staphylococcus aureus” value in experiment [1] was “C (4-32 is C)”. Further, in experiment [2], the “MIC Streptococcus pneumoniae” value is given as “D (≥64 is D)”.
Regarding `C[C@@H]1CC[C@@]23CCC(=O)[C@H]2[C@]1(C)[C@H](OC(=O)COc1ccc2c(c1F)B(O)OC2)C[C@@](C)(CNC1CC1)[C@@H](O)[C@@H]3C` [Compound 37, (3aR,4R,5R,7S,8S,9R,9aS,12R)-7-((cyclopropylamino)methyl)-8-hydroxy-4,7,9,12-tetramethyl-3-oxodecahydro-4,9a-propanocyclopenta[8]annulen-5-yl2-((7-fluoro-1-hydroxy-1,3-dihydrobenzo[c][1,2]oxaborol-6-yl)oxy)acetate], the “MIC Staphylococcus aureus” value in experiment [1] is listed as “B (0.5-2 is B)”. For the same compound, the “MIC Streptococcus pneumoniae” value in experiment [2] was “C (4-32 is C)”.
`CC[C@]1(C)C[C@@H](OC(=O)COc2ccc3c(c2F)B(O)OC3)[C@]2(C)[C@H](C)CC[C@]3(CCC(=O)[C@H]32)[C@@H](C)[C@@H]1O` [Compound 19, (3aR,4R,5R,7R,8S,9R,9aS,12R)-7-ethyl-8-hydroxy-4,7,9,12-tetramethyl-3-oxodecahydro-4,9a-propanocyclopenta[8]annulen-5-yl2-((7-fluoro-1-hydroxy-1,3-dihydrobenzo[c][1,2]oxaborol-6-yl)oxy)acetate]: the “MIC Staphylococcus aureus” value in experiment [1] is on record as “A (MIC of ≤0.25 is A)”. In experiment [2], the “MIC Streptococcus pneumoniae” value is “B (0.5-2 is B)”.
Take `C[C@@H]1CC[C@@]23CCC(=O)[C@H]2[C@]1(C)[C@H](OC(=O)COc1ccc2c(c1F)B(O)OC2)C[C@@](C)(CN)[C@@H](OS(C)(=O)=O)[C@@H]3C` [Compound 50, (3aR,4R,5R,7S,8S,9R,9aS,12R)-7-(aminomethyl)-4,7,9,12-tetramethyl-8-((methylsulfonyl)oxy)-3-oxodecahydro-4,9a-propanocyclopenta[8]annulen-5-yl2-((7-fluoro-1-hydroxy-1,3-dihydrobenzo[c][1,2]oxaborol-6-yl)oxy)acetate]: in experiment [1], the “MIC Staphylococcus aureus” value is “C (4-32 is C)”. Besides, the “MIC Streptococcus pneumoniae” value in experiment [2] is “C (4-32 is C)”.
Turning to `CCCNC[C@]1(C)C[C@@H](OC(=O)COc2ccc3c(c2F)B(O)OC3)[C@]2(C)[C@H](C)CC[C@]3(CCC(=O)[C@H]32)[C@@H](C)[C@@H]1O` [Compound 35, (3aR,4R,5R,7S,8S,9R,9aS,12R)-8-hydroxy-4,7,9,12-tetramethyl-3-oxo-7-((propylamino)methyl)decahydro-4,9a-propanocyclopenta[8]annulen-5-yl2-((7-fluoro-1-hydroxy-1,3-dihydrobenzo[c][1,2]oxaborol-6-yl)oxy)acetate], the “MIC Staphylococcus aureus” value in experiment [1] is reported as “C (4-32 is C)”. Moreover, the “MIC Streptococcus pneumoniae” value in experiment [2] is on record as “C (4-32 is C)”.
Turning to `Cc1noc(/C=C/[C@]2(C)C[C@@H](OC(=O)COc3ccc4c(c3F)B(O)OC4)[C@]3(C)[C@H](C)CC[C@]4(CCC(=O)[C@H]43)[C@@H](C)[C@@H]2O)n1` [Compound 52, (3aR,4R,5R,7S,8S,9R,9aS,12R)-8-hydroxy-4,7,9,12-tetramethyl-7-((E)-2-(3-methyl-1,2,4-oxadiazol-5-yl)vinyl)-3-oxodecahydro-4,9a-propanocyclopenta[8]annulen-5-yl2-((7-fluoro-1-hydroxy-1,3-dihydrobenzo[c][1,2]oxaborol-6-yl)oxy)acetate], the “MIC Staphylococcus aureus” value in experiment [1] is “A (MIC of ≤0.25 is A)”. Also, the “MIC Streptococcus pneumoniae” value in experiment [2] is “A (MIC of ≤0.25 is A)”.
